Test results taken from PubChem BioAssay AID328 (DTP/NCI, 2004).
Values joined by “and” are separate entries in the source; they are usually repeats but may differ in a detail not shown here. Identical values can stand only once. Toxic doses and inconclusive results are not listed.

Tested on: BDF1 mice, P388 leukemia ip, median survival T/C
Assay: NCI In Vivo Anticancer Drug Screen. Data for tumor model P388 Leukemia (intraperitoneal) in B6D2F1 (BDF1) mice
Conditions: endpoint: median survival time, higher = longer survival
In short: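 T/C = treated-group survival ÷ vehicle-control survival; tumour transplanted into mice before dosing.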

[1] = dose: 100.0 mg/kg/injection, schedule: Q01DX009 (ip), vehicle: Klucel (hydroxypropylcellulose) (HPC)
[2] = dose: 100.0 mg/kg/injection, schedule: Q04DX003 (ip), vehicle: Klucel (hydroxypropylcellulose) (HPC)
[3] = dose: 200.0 mg/kg/injection, schedule: Q01DX009 (ip), vehicle: Klucel (hydroxypropylcellulose) (HPC)
[4] = dose: 200.0 mg/kg/injection, schedule: Q04DX003 (ip), vehicle: Klucel (hydroxypropylcellulose) (HPC)
[5] = dose: 400.0 mg/kg/injection, schedule: Q04DX003 (ip), vehicle: Klucel (hydroxypropylcellulose) (HPC)
[6] = dose: 100.0 mg/kg/injection, schedule: Q04DX003 (ip), vehicle: saline with Tween-80
[7] = dose: 200.0 mg/kg/injection, schedule: Q04DX003 (ip), vehicle: saline with Tween-80
[8] = dose: 400.0 mg/kg/injection, schedule: Q04DX003 (ip), vehicle: saline with Tween-80

Which T/C [1] does the source give for `Cc1ccc(C2(C(=O)O)CCCCC2)cc1` here?
Its T/C is 100 % of control.

What about the T/C [2] of the same molecule?
The T/C was 109 % of control.

What about the T/C [3] of the same molecule?
The T/C was 92 % of control.

What about the T/C [4] of the same molecule?
Its T/C is 104 % of control.

And the T/C [5]?
The T/C was 100 % of control.

Which T/C [6] does the source give for `O=C(c1ccccn1)C12CC3CC(CC(C3)C1)C2` here?
Its T/C is 95 % of control.

And the T/C [7]?
The T/C was 105 % of control.

What about the T/C [8] of the same molecule?
The T/C was 95 % of control.

How did the T/C (dose: 100.0 mg/kg/injection, schedule: Q01DX009 (ip), vehicle: saline with Tween-80) turn out when `CC1(c2cccc(N)c2)OCCO1` was run?
Its T/C is 100 % of control.

And the T/C [6]?
Its T/C is 90 % of control.

And the T/C (dose: 200.0 mg/kg/injection, schedule: Q01DX009 (ip), vehicle: saline with Tween-80)?
The T/C was 95 % of control.

What about the T/C [7] of the same molecule?
Its T/C is 109 % of control.

What about the T/C (dose: 400.0 mg/kg/injection, schedule: Q01DX009 (ip), vehicle: saline with Tween-80) of the same molecule?
The T/C was 90 % of control.

What about the T/C [8] of the same molecule?
The T/C was 109 % of control.

With `CCCCCCCCCCCC(=O)N(C)C` as the molecule, how does the T/C [1] read?
Its T/C is 105 % of control.

What about the T/C [2] of the same molecule?
The T/C was 104 % of control.

And the T/C [3]?
Its T/C is 105 % of control.

And the T/C [4]?
Its T/C is 100 % of control.

What about the T/C [5] of the same molecule?
Its T/C is 100 % of control.

Which T/C (dose: 100.0 mg/kg/injection, schedule: Q01DX001 (ip), vehicle: saline) does the source give for `CC(C)Oc1ccc(C(=O)NS(=O)(=O)c2ccc(N)cc2)cc1` here?
Its T/C is 113 % of control.

What about the T/C (dose: 200.0 mg/kg/injection, schedule: Q01DX001 (ip), vehicle: saline) of the same molecule?
Its T/C is 104 % of control.

What about the T/C (dose: 400.0 mg/kg/injection, schedule: Q01DX001 (ip), vehicle: saline) of the same molecule?
The T/C was 100 % of control.

What does the source list for `NN=C1CCC(=NN)CC1`?
T/C (dose: 12.5 mg/kg/injection, schedule: Q01DX009 (ip), vehicle: water): 100 % of control; T/C (dose: 25.0 mg/kg/injection, schedule: Q01DX009 (ip), vehicle: water): 105 % of control and 109 % of control; T/C (dose: 25.0 mg/kg/injection, schedule: Q04DX003 (ip), vehicle: water): 90 % of control and 104 % of control; T/C (dose: 50.0 mg/kg/injection, schedule: Q01DX009 (ip), vehicle: water): 103 % of control and 113 % of control and 114 % of control; T/C (dose: 50.0 mg/kg/injection, schedule: Q04DX003 (ip), vehicle: water): 95 % of control and 114 % of control and 118 % of control; T/C (dose: 100.0 mg/kg/injection, schedule: Q04DX003 (ip), vehicle: water): 102 % of control and 111 % of control; T/C (dose: 200.0 mg/kg/injection, schedule: Q04DX003 (ip), vehicle: water): 92 % of control

`Clc1c(Cl)c(CBr)c(Cl)c(CBr)c1Cl` was tested. Which T/C (dose: 20.0 mg/kg/injection, schedule: Q01DX009 (ip), vehicle: Klucel (hydroxypropylcellulose) (HPC)) did it give?
The T/C was 100 % of control.

What about the T/C (dose: 40.0 mg/kg/injection, schedule: Q01DX009 (ip), vehicle: Klucel (hydroxypropylcellulose) (HPC)) of the same molecule?
Its T/C is 95 % of control.

And the T/C (dose: 50.0 mg/kg/injection, schedule: Q01DX009 (ip), vehicle: saline sonified)?
The T/C was 113 % of control.

What about the T/C (dose: 50.0 mg/kg/injection, schedule: Q04DX003 (ip), vehicle: Klucel (hydroxypropylcellulose) (HPC)) of the same molecule?
The T/C was 100 % of control.

What about the T/C (dose: 88.0 mg/kg/injection, schedule: Q04DX003 (ip), vehicle: Klucel (hydroxypropylcellulose) (HPC)) of the same molecule?
The T/C was 108 % of control.

What about the T/C (dose: 100.0 mg/kg/injection, schedule: Q01DX009 (ip), vehicle: saline sonified) of the same molecule?
Its T/C is 118 % of control.

What about the T/C [2] of the same molecule?
The T/C was 110 % of control.

And the T/C (dose: 132.0 mg/kg/injection, schedule: Q04DX003 (ip), vehicle: Klucel (hydroxypropylcellulose) (HPC))?
The T/C was 91 % of control.

And the T/C (dose: 132.0 mg/kg/injection, schedule: Q04DX003 (ip), vehicle: saline sonified)?
Its T/C is 122 % of control.

What about the T/C (dose: 200.0 mg/kg/injection, schedule: Q04DX003 (ip), vehicle: saline sonified) of the same molecule?
Its T/C is 150 % of control.

For `Cc1c(C)c(Br)c(C)c(-c2c(O)c(Br)c(-c3c(C)c(C)c(C)c(Br)c3C)c(O)c2Br)c1C`, which T/C [6] is on record?
The T/C was 100 % of control.

What about the T/C [7] of the same molecule?
Its T/C is 90 % of control.

And the T/C [8]?
Its T/C is 90 % of control.

For `O=C(O)c1cc[c]([Hg][S]c2ncnc3nc[nH]c23)cc1`, which T/C (dose: 25.0 mg/kg/injection, schedule: Q01DX009 (ip), vehicle: suspension in saline) is on record?
The T/C was 119 % of control.

Which T/C (dose: 9.37 mg/kg/injection, schedule: Q04DX003 (ip), vehicle: saline) does the source give for `Cc1cc[n+](C)c2ccccc12` here?
Its T/C is 100 % of control.

And the T/C (dose: 18.75 mg/kg/injection, schedule: Q04DX003 (ip), vehicle: saline)?
The T/C was 100 % of control.
